The record followed here is US12630547B2, “RAS protein degraders, pharmaceutical compositions thereof, and their therapeutic applications” (BioTheryX, Inc., priority 2019, dated 2026).

Type in all cases: cell-based
Experiment [1] deals with MOLM-13 cells. In words: Cell viability assay (CELLTITER-GLO), MOLM-13 cells. Conditions: Homo sapiens, MOLM-13, 72 h; Table 2; compound at 10 μM, 3 days; read-out: Effect on MOLM-13 cell viability (% DMSO). The method, then:
(§1) MOLM-13 cells, MV-4-11 cells, H23, and H358 cells were independently cultured in RPMI 1640 media supplemented with 10% fetal bovine serum, streptomycin and penicillin. The cells were plated in white walled 96-well plates at 4,000 cells/well. The cells were incubated in DMSO (control) or a compound for 3 days at 37° C. under 5% CO2. A CELLTITER-GLO® reagent (100 μL) was then added to each well. After a 10 min incubation with shaking, luminescence was measured using an ENVISION® multimode plate reader.
In Tables 1 and 2, each compound was tested at 10 μM; and in Table 3, each compound was tested at 1 μM. In Tables 1 to 3, the cell viability values as % DMSO are reported as “A,” “B,” “C,” or “D;” where “A” represents a % viability value of less than 10%; “B” represents a % viability value of no less than 10% and less than 25%; “C” represents a % viability value of no less than 25% and less than 50%; and “D” represents a % viability value of no less than 50%. Compound A is […]

Experiment [2] concerns H358 cells. In words: Cell viability assay (CELLTITER-GLO), H358 cells. Particulars: Table 4; 3 days. The method, then:
as §1
In Tables 1 and 2, each compound was tested at 10 μM; and in Table 3, each compound was tested at 1 μM. In Tables 1 to 3, the cell viability values as % DMSO are reported as “A,” “B,” “C,” or “D;” where “A” represents a % viability value of less than 10%; “B” represents a % viability value of no less than 10% and less than 25%; “C” represents a % viability value of no less than 25% and less than 50%; and “D” represents a % viability value of no less than 50%. Compound A is
(§2) IC50 values are summarized in Table 4, where “A” represents an IC50 value of no greater than 1 μM, “B” represents an IC50 value of greater than 1 μM and no greater than 5 μM, “C” represents an IC50 value of greater than 5 μM and no greater than 10 μM, and “D” represents an IC50 value of greater than 10 μM.
Background: ATP-based viability assays read luminescence as a measure of living cells.

The test system of experiment [3] is H23 cells. In words: Cell viability assay (CELLTITER-GLO), H23 cells. Conditions: Table 4; 3 days. The procedure: as §1, §2

For the compound `CCC(=O)N1CCN(c2ncnc3c(F)c(-c4c(F)cccc4OCCCCCCCNCc4ccc(OCc5scc6c5CN([C@H]5CCC(=O)NC5=O)C6=O)cc4)c(Cl)cc23)CC1` [Compound 25, (3S)-3-(1-((4-(((7-(2-(6-Chloro-8-fluoro-4-(4-propionylpiperazin-1-yl)quinazolin-7-yl)-3-fluorophenoxy)heptyl)amino)methyl)phenoxy)methyl)-4-oxo-4H-thieno[3,4-c]pyrrol-5(6H)-yl)piperidine-2,6-dione], the viability at 10 µM in experiment [1] was below 10%. With `CCC(=O)N1CC(c2nc3ccc(-c4cc(O)cc5ccccc45)cc3c(=O)n2CCOCCNCc2ccc(OCc3scc4c3CN(C3CCC(=O)NC3=O)C4=O)cc2)C1` (stereo not drawn) [Compound 26, 3-(1-((4-(((2-(2-(6-(3-Hydroxynaphthalen-1-yl)-4-oxo-2-(1-propionylazetidin-3-yl)quinazolin-3(4H)-yl)ethoxy)ethyl)amino)methyl)phenoxy)methyl)-4-oxo-4H-thieno[3,4-c]pyrrol-5(6H)-yl)piperidine-2,6-dione], in experiment [1], the viability at 10 µM was at least 50%. `C=CC(=O)N1CCN(c2ncnc3c(F)c(-c4c(F)cccc4OCCCCCCCNC(=O)NCc4scc5c4CN(C4CCC(=O)NC4=O)C5=O)c(Cl)cc23)CC1` (stereo not drawn) [Compound 27, 1-(7-(2-(4-(4-Acryloylpiperazin-1-yl)-6-chloro-8-fluoroquinazolin-7-yl)-3-fluorophenoxy)heptyl)-3-((5-(2,6-dioxopiperidin-3-yl)-4-oxo-5,6-dihydro-4H-thieno[3,4-c]pyrrol-1-yl)methyl)urea]: the viability at 10 µM in experiment [1] is below 10%. As for `CCC(=O)N1CCN(c2ncnc3c(F)c(-c4c(F)cccc4OCCCCCCCNC(=O)NCc4scc5c4CN(C4CCC(=O)NC4=O)C5=O)c(Cl)cc23)CC1` (stereo not drawn) [Compound 28, 1-(7-(2-(6-Chloro-8-fluoro-4-(4-propionylpiperazin-1-yl)quinazolin-7-yl)-3-fluorophenoxy)heptyl)-3-((5-(2,6-dioxopiperidin-3-yl)-4-oxo-5,6-dihydro-4H-thieno[3,4-c]pyrrol-1-yl)methyl)urea], the viability at 10 µM in experiment [1] is below 10%. `C=CC(=O)N1CCN(c2ncnc3c(F)c(-c4c(F)cccc4OCCOCCOCCC(=O)NCCNc4cccc5c4CN(C4CCC(=O)NC4=O)C5=O)c(Cl)cc23)CC1` (stereo not drawn) [Compound 29, 3-(2-(2-(2-(4-(4-Acryloylpiperazin-1-yl)-6-chloro-8-fluoroquinazolin-7-yl)-3-fluorophenoxy)ethoxy)ethoxy)-N-(2-((2-(2,6-dioxopiperidin-3-yl)-1-oxoisoindolin-4-yl)amino)ethyl)propanamide]: the viability at 10 µM in experiment [1] is below 10%. Same read-out and setting: in the case of `CCC(=O)N1CCN(c2ncnc3c(F)c(-c4c(F)cccc4OCCOCCOCCC(=O)NCCNc4cccc5c4CN(C4CCC(=O)NC4=O)C5=O)c(Cl)cc23)CC1` (stereo not drawn) [Compound 30, 3-(2-(2-(2-(6-chloro-8-fluoro-4-(4-propionylpiperazin-1-yl)quinazolin-7-yl)-3-fluorophenoxy)ethoxy)ethoxy)-N-(2-((2-(2,6-dioxopiperidin-3-yl)-1-oxoisoindolin-4-yl)amino)ethyl)propanamide] it was at least 50%; in that of `CC(=O)N1CCN(c2ncnc3c(F)c(-c4c(F)cccc4OCCOCCOCCOCCNc4cccc5c4C(=O)N(C4CCC(=O)NC4=O)C5=O)c(Cl)cc23)CC1` (stereo not drawn) [Compound 31, 4-((2-(2-(2-(2-(2-(4-(4-Acetylpiperazin-1-yl)-6-chloro-8-fluoroquinazolin-7-yl)-3-fluorophenoxy)ethoxy)ethoxy)ethoxy)ethyl)amino)-2-(2,6-dioxopiperidin-3-yl)isoindoline-1,3-dione], at least 50%. In the case of `NC(=O)N1CCN(c2ncnc3c(F)c(-c4c(F)cccc4OCCOCCOCCOCCNc4cccc5c4C(=O)N(C4CCC(=O)NC4=O)C5=O)c(Cl)cc23)CC1` (stereo not drawn) [Compound 32, 4-(6-Chloro-7-(2-(2-(2-(2-(2-((2-(2,6-dioxopiperidin-3-yl)-1,3-dioxoisoindolin-4-yl)amino)ethoxy)ethoxy)ethoxy)ethoxy)-6-fluorophenyl)-8-fluoroquinazolin-4-yl)piperazine-1-carboxamide], the viability at 10 µM in experiment [1] is at least 50%. On to `CCC(=O)N1CCN(c2ncnc3c(F)c(-c4c(F)cccc4OCCCCCCCCNc4cccc5c4C(=O)N(C4CCC(=O)NC4=O)C5=O)c(Cl)cc23)CC1` (stereo not drawn) [Compound 33, 4-((8-(2-(6-Chloro-8-fluoro-4-(4-propionylpiperazin-1-yl)quinazolin-7-yl)-3-fluorophenoxy)octyl)amino)-2-(2,6-dioxopiperidin-3-yl)isoindoline-1,3-dione], for which the viability at 10 µM in experiment [1] lay within 25 to 50%. The same measure, in the same setting: in the case of `C=CC(=O)N1CCN(c2ncnc3c(F)c(-c4c(F)cccc4OCCCCCCCCNc4cccc5c4C(=O)N(C4CCC(=O)NC4=O)C5=O)c(Cl)cc23)CC1` (stereo not drawn) [Compound 34, 4-((8-(2-(4-(4-Acryloylpiperazin-1-yl)-6-chloro-8-fluoroquinazolin-7-yl)-3-fluorophenoxy)octyl)amino)-2-(2,6-dioxopiperidin-3-yl)isoindoline-1,3-dione] it was 10 to 25%; in that of `CCC(=O)N1CC(N2Cc3ccc(-c4cc(O)cc5ccccc45)cc3N(CC(=O)NCCCCCCCN3CCC(c4cc(F)cc5c4CN(C4CCC(=O)NC4=O)C5=O)CC3)C2=O)C1` (stereo not drawn) [Compound 35, N-(7-(4-(2-(2,6-Dioxopiperidin-3-yl)-6-fluoro-1-oxoisoindolin-4-yl)piperidin-1-yl)heptyl)-2-(7-(3-hydroxynaphthalen-1-yl)-2-oxo-3-(1-propionylazetidin-3-yl)-3,4-dihydroquinazolin-1(2H)-yl)acetamide], 10 to 25%. As to `C=CC(=O)N1CCN(c2ncnc3c(F)c(-c4cc(OCCOCCOCCC(=O)NCCNc5cccc6c5CN(C5CCC(=O)NC5=O)C6=O)ccc4F)c(Cl)cc23)CC1` [Compound 39, 3-(2-(2-((R)-3-(4-(4-Acryloylpiperazin-1-yl)-6-chloro-8-fluoroquinazolin-7-yl)-4-fluorophenoxy)ethoxy)ethoxy)-N-(2-((2-(2,6-dioxopiperidin-3-yl)-1-oxoisoindolin-4-yl)amino)ethyl)propanamide], in experiment [2], the “Inhibition of H358 cells, IC50 (class)” value is reported as “D′”. In addition, the “Inhibition of H23 cells, IC50 (class)” value in experiment [3] was “D′”. On to `C=CC(=O)N1CCN(c2nc(OCCOCCOCCOCCNc3cccc4c3C(=O)N(C3CCC(=O)NC3=O)C4=O)nc3c2CCN(c2cccc4ccccc24)C3)C[C@H]1C` (stereo partly drawn) [Compound 47, 4-((2-(2-(2-(2-((4-((R)-4-Acryloyl-3-methylpiperazin-1-yl)-7-(naphthalen-1-yl)-5,6,7,8-tetrahydropyrido[3,4-d]pyrimidin-2-yl)oxy)ethoxy)ethoxy)ethoxy)ethyl)amino)-2-(2,6-dioxopiperidin-3-yl)isoindoline-1,3-dione], for which the “Inhibition of H358 cells, IC50 (class)” value in experiment [2] is reported as “C′”. The “Inhibition of H23 cells, IC50 (class)” value in experiment [3] is listed as “B′”. On to `CCC(=O)N1CCN(c2nc(OCCOCCOCCOCCNc3cccc4c3C(=O)N(C3CCC(=O)NC3=O)C4=O)nc3c2CCN(c2cccc4ccccc24)C3)C[C@H]1C` (stereo partly drawn) [Compound 48, 2-(2,6-Dioxopiperidin-3-yl)-4-((2-(2-(2-(2-((4-((R)-3-methyl-4-propionylpiperazin-1-yl)-7-(naphthalen-1-yl)-5,6,7,8-tetrahydropyrido[3,4-d]pyrimidin-2-yl)oxy)ethoxy)ethoxy)ethoxy)ethyl)-amino)isoindoline-1,3-dione], for which, in experiment [2], the “Inhibition of H358 cells, IC50 (class)” value is “D′”. In addition, in experiment [3], the “Inhibition of H23 cells, IC50 (class)” value was “D′”. On to `CCC(=O)N1CCN(c2ncnc3c(Cl)c(-c4c(F)cccc4OCCCCCCCCN4CCC(c5cc(F)cc6c5CN(C5CCC(=O)NC5=O)C6=O)CC4)c(F)cc23)CC1` [Compound 49, 3-(4-(1-(8-((R)-2-(8-Chloro-6-fluoro-4-(4-propionylpiperazin-1-yl)quinazolin-7-yl)-3-fluorophenoxy)octyl)piperidin-4-yl)-6-fluoro-1-oxoisoindolin-2-yl)piperidine-2,6-dione], for which, in experiment [2], the “Inhibition of H358 cells, IC50 (class)” value was “B′”. Moreover, in experiment [3], the “Inhibition of H23 cells, IC50 (class)” value is reported as “B′”. Turning to `C=CC(=O)N1CCN(c2ncnc3c(F)c(-c4c(F)cccc4OCCCCCCC(=O)N[C@H](C(=O)N4C[C@H](O)C[C@H]4C(=O)NCc4ccc(-c5scnc5C)cc4)C(C)(C)C)c(Cl)cc23)CC1` [Compound 50, (2S,4R)-1-((2S)-2-(7-(2-(4-(4-Acryloylpiperazin-1-yl)-6-chloro-8-fluoroquinazolin-7-yl)-3-fluorophenoxy)heptanamido)-3,3-dimethylbutanoyl)-4-hydroxy-N-(4-(4-methylthiazol-5-yl)benzyl)pyrrolidine-2-carboxamide], the “Inhibition of H358 cells, IC50 (class)” value in experiment [2] is listed as “A′”. The “Inhibition of H23 cells, IC50 (class)” value in experiment [3] is listed as “B′”.

As a reminder, the viability is a per cent measure of how many cells are alive, often set against a control.
